Like-named read-outs stand apart in the source and are kept apart here.
Columns and labels:
[1] = test system: MESSA cells; experiment: Cytotoxicity assay (PrestoBlue cell viability), MESSA; format: cell-based; settings: Homo sapiens, MES-SA; 48 hours treatment; concentration inducing 50% cell mortality
Experimental: (§1) Messa, Messa DX5, HCT116, HEK-293, PC-3, LNCaP, HCC827 and H1975 cell lines are issued from the American Type Culture Collection (ATCC).
(§2) Messa, Messa DX5 and HCT116 were maintained in McCoy's supplemented with 10% fetal bovine serum, and 1% penicillin/streptomycin. PC-3, LNCaP cells were maintained in RPMI medium supplemented with 10% fetal bovine serum, and 1% penicilin/streptomycin and in the case of Messa DX5: 500 nM Doxorubicin was added to maintain selection pressure. HEK293 were maintained in DMEM medium supplemented with 10% fetal bovine serum, and 1% penicillin/streptomycin. Cells were maintained at 37° C. with 5% CO2, 95% air, and humid atmosphere. In the case of hormonal dependent LNCaP cells, 2 μM DiHydroTestosterone (DHT) was added or not—depending on the type of biological assay—for the same incubation period as compounds.
(§3) For cytotoxicity assays, cells were seeded in 96-well microplates 24 hours before the addition of increasing concentrations of each compound in the culture medium. Cell viability was analyzed 48 hours following addition of each compound through the monitoring of mitochondrial […] activity using PrestoBlue® Cell Viability Reagent (Invitrogen; #A-13261). Paclitaxel was used as a control which is cytotoxic on various cancerous cells although not on chemoresistant MESSA DX5 lineage.

[2] = test system: LNCaP prostatic cancer cells; experiment: Cell growth inhibition and cell death induction (Incucyte), LNCaP; format: cell-based, human; settings: 48 hours, FIG. 12E,F
Excerpt: (§4) FIG. 12: The cell growth inhibition and cell death induction of non-small cell lung cancers (NSCLC), HCC827 cells and derivative Gefitinib-resistant clone H1975 (FIG. 12 A,B) and of PC-3 (FIG. 12 C,D) and LnCAP (FIG. 12 E,F) were monitored using Incucyte microscope. Histogram represent in A,C,E: the final cell area relative to the total well area in (%) and in B,D,F: the fluorescent area in μm2. Error bars indicate standard deviation between 6 technical replicates.
(§5) The cell growth inhibition and cell death induction of non-small cell lung cancers (NSCLC), HCC827 cells and derivative Gefitinib-resistant clone H1975 were monitored during a period of 72 hours using Incucyte microscope and dedicated programs allowing to monitor cell confluency (i.e.: cell surface area relative to total well surface) and cell death induction by adding Propidium Iodide (PI) at 1 μg/ml (Sigma Aldrich #P4864) in the culture medium.

[3] = test system: HEK293 cells; experiment: Cytotoxicity assay (PrestoBlue cell viability), HEK293; format: cell-based; settings: Homo sapiens, 48 hours treatment
Experimental: as §1, §2, §3

[4] = test system: PC-3 prostatic cancer cells; experiment: Cell growth inhibition and cell death induction (Incucyte), PC-3; format: cell-based, human; settings: 48 hours, FIG. 12C,D
Excerpt: as §4, §5

[5] = test system: H1975 cells; experiment: Cytotoxicity assay (PrestoBlue cell viability), H1975; format: cell-based, human
Experimental: as §1, §3

[6] = test system: LNCaP cells; experiment: Cytotoxicity assay (PrestoBlue cell viability), LNCaP; format: cell-based; settings: Homo sapiens, 48 hours treatment
Experimental: as §1, §2, §3

[7] = test system: PC-3 cells; experiment: Cytotoxicity assay (PrestoBlue cell viability), PC-3; format: cell-based; settings: Homo sapiens, 48 hours treatment
Experimental: as §1, §2, §3

[8] = test system: MESSA DX5 cells; experiment: Cytotoxicity assay (PrestoBlue cell viability), MESSA DX5; format: cell-based, human; settings: for EC50: Homo sapiens, MES-SA/Dx5, 48 hours treatment, chemoresistant line
Experimental: as §1, §2, §3

[9] = target: T1, USP2^CD (purified catalytic domain of USP2) (Homo sapiens, UniProt O75604); experiment: Inhibition of purified USP2^CD enzymatic activity (Ub-AMC or Ub-Rho substrate); format: biochemical; settings: for inhibition at 0.01 µM: 0.01 μM compound; for inhibition at 0.05 µM: 0.05 μM compound; for inhibition at 0.1 µM: 0.1 μM compound; for inhibition at 0.5 µM: 0.5 μM compound; for inhibition at 1 µM: 1 μM compound; for inhibition at 5 µM: 5 μM compound; for inhibition at 10 µM: 10 μM compound; for inhibition at 25 µM: 25 μM compound; for inhibition at 50 µM: 50 μM compound; for inhibition of USP2^CD activity (IC50 range, FIG. 1): Ub-Rho substrate (0.1 μM)
T1 construct: The purified catalytic domain of USP2 (USP2^CD, in-house purified); His; made in house; host or cells: E. coli BL21 Gold
T1 sequence (O75604 267-599 limits assumed): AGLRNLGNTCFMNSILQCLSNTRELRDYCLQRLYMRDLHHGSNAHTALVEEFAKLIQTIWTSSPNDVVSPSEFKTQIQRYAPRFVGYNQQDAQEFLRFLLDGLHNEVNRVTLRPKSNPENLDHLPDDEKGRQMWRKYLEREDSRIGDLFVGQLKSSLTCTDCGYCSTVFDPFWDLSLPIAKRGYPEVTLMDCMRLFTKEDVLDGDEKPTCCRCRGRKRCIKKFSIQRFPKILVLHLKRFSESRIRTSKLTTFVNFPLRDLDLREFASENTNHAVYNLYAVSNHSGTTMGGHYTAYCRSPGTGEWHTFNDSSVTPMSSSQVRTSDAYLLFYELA
How it was run: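 His-tagged catalytic domain expressed in E. coli and Ni/gel-filtration purified; assayed in 50 mM HEPES pH 7.6 or 40 mM Tris pH 7.4 with 1 mM DTT. Compound added just before Ub-AMC or Ub-Rho substrate; fluorescence from hydrolysis followed over 20 or 30 min, median of duplicates.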

[10] = Ub-AMC substrate at 1 μM, Table 2b, read-out: IC50 USP2 CD

inhibition at 0.01 µM ([9]; Table 1c) [%]	inhibition at 0.05 µM ([9]; Table 1c) [%]	inhibition at 0.1 µM ([9]; Table 1c) [%]	inhibition at 0.5 µM ([9]; Table 1c) [%]	inhibition at 1 µM ([9]; Table 1b) [%]	inhibition at 1 µM ([9]; Table 1c) [%]	inhibition at 5 µM ([9]; Table 1b) [%]	inhibition at 5 µM ([9]; Table 1c) [%]	inhibition at 10 µM ([9]; Table 1c) [%]	inhibition at 25 µM ([9]; Table 1b) [%]	inhibition at 50 µM ([9]; Table 1b) [%]	IC50 [9, 10] [nM]	SMILES	EC50 [1] [nM]	cell growth inhibition and cell death induction, LNCaP [2]	EC50 [3] [nM]	cell growth inhibition and cell death induction, PC-3 [4]	EC50 ([5]; Homo sapiens, NCI-H1975, 48 h) [nM]	EC50 [6] [nM]	EC50 [7] [nM]	EC50 [8] [nM]	also measured
-29	2	9	10	54	12	68	20	17	86	96	> 10000	O=C1c2ccccc2C(=O)c2nc(CS(=O)(=O)c3ccccc3F)c(CS(=O)(=O)c3ccccc3F)nc21 [OVM24]	700	inhibit cell growth and induce cell death in a dose dependent manner	2500	inhibit cell growth and induce cell death in a dose dependent manner	2000	1300	2500	800	–
–	–	–	–	–	–	–	–	–	–	–	–	CCCCS(=O)(=O)Cc1nc2c(nc1CS(=O)(=O)CCCC)C(=O)c1ccccc1C2=O [PCR6236]	2000	inhibit cell growth and induce cell death in a dose dependent manner	1400	inhibit cell growth and induce cell death in a dose dependent manner	–	2000	800	3500	EC50 ([5]; 48 hours treatment, Gefitinib resistant cells): 3000 nM; EC50 ([5]; Homo sapiens, NCI-H1975, 48 h, 48 hours treatment, Gefitinib resistant cells): ≤ 3000 nM; sensitivity of chemo-resistant MESSA-DX5 compared with nonresistant MESSA cell line [8]: equally sensitive; IC50 [9]: 2100 nM; inhibition of USP2^CD activity (IC50 range, FIG. 1) [9]: in the micromolar range
1	-13	-23	23	38	17	81	70	77	98	101	3000	CCCS(=O)(=O)Cc1nc2c(nc1CS(=O)(=O)CCC)C(=O)c1ccccc1C2=O [VIN6074]	2700	inhibit cell growth and induce cell death in a dose dependent manner	1500	inhibit cell growth and induce cell death in a dose dependent manner	2000	1900	2300	3500	IC50 ([9]; Ub-Rhodamine substrate at 0.1 μM, Table 2c, read-out: IC50 USP2 CD): 500 nM
–	–	–	–	–	–	–	–	–	–	–	–	CCCCS(=O)(=O)Cc1nc2c(o1)C(=O)c1ccccc1C2=O [PCR9301]	1300	–	–	–	–	1300	1000	1800	sensitivity of chemo-resistant MESSA-DX5 compared with nonresistant MESSA cell line [8]: equally sensitive; inhibition at 1 µM ([9]; Table 3a): 77%; inhibition at 5 µM ([9]; Table 3a): 99%; inhibition at 25 µM ([9]; Table 3a): 100%; inhibition at 50 µM ([9]; Table 3a): 100%; inhibition of USP2^CD activity (IC50 range, FIG. 1) [9]: in the micromolar range; IC50 ([9]; Ub-Rho substrate, Table 3b, read-out: IC50 against purified USP2^CD): 400 nM

— patent US11306063B2, “Heterocyclic naphthoquinones derivatives for use in the treatment of cancers including Cushing disease” (Commissariat a l'Energie Atomique et aux Energies …, priority 2016, dated 2022)
